In patent US5981541A, “Substituted heterocycles as anti-tumor agents” (Rutgers, The State University of New Jersey, priority 1997, dated 1999):

target: T1, human topoisomerase I (Homo sapiens, UniProt P11387); experiment: Topo I-mediated DNA cleavage assay; format: biochemical; details: not given
T1 construct: 15 amino acid fusion from pET-11a vector (N); made in house; host or cells: E. coli BL21(DE3)
T1 sequence (P11387 1-765): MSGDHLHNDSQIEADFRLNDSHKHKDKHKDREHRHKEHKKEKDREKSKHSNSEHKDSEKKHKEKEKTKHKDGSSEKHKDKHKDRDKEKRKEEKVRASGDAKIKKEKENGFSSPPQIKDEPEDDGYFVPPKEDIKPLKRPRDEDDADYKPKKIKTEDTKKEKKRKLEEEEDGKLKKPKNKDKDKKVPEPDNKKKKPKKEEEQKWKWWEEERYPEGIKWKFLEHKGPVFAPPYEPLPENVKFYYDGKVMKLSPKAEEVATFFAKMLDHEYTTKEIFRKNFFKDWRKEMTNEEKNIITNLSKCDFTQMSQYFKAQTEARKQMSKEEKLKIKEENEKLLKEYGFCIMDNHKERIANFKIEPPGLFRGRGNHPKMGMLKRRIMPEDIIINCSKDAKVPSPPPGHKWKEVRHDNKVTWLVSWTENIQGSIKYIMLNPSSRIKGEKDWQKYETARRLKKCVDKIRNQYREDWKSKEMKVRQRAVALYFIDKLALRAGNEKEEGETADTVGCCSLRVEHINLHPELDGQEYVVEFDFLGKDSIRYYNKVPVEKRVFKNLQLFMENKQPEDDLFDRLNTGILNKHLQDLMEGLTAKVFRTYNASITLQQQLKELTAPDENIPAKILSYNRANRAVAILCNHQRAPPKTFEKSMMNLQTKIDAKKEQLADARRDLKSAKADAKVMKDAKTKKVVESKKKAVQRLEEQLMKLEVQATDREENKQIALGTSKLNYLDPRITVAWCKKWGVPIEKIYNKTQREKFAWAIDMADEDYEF
Source text: To obtain large quantity of human topoisomerase I, the human topoisomerase I cDNA was cloned into the pET-11a vector, in which transcription of the cDNA is under the control of the inducible T7 promoter (Studier et al., Methods in Enzymol., Vol. 185:60-89, San Diego: Academic Press (1990)). Briefly, a 3.4 kb DNA fragment containing the entire coding sequence of human topoisomerase I and approximately 1 kb of untranslated region downstream of the stop codon was isolated from the plasmid YCpGAL1-hTOP1 (Bjornsti et al., Cancer Res. 49:6318-6323 (1989)) by cutting at the BamHI and EcoRI sites. The vector pET-11a was cut with the same restriction enzymes, dephosphorylated and ligated to the insert in the proper reading frame downstream of the vector cloning site. […] Since the translational start in pET is positioned at an upstream NdeI site, the expressed topoisomerase I has a 15 amino acid fusion at its N-terminus. pET1B was then transformed into E. coli BL21 (DE3), and, upon induction with 0.4 mM IPTG for 1 hour, the bacterial lysate was analyzed by 10% SDS-PAGE. […] Briefly, E. coli cells were lysed by repeated sonic bursts. The sonic extract was made in 1 M NaCl and 6% polyethylene glycol (PEG) to remove nucleic acids. The PEG supernatant was chromatographed directly on a hydroxyapatite column. […] The eluted enzyme was dialyzed against 50% glycerol, 30 mM potassium phosphate (pH 7.0), 1 mM dithiothreitol (DTT) and 0.1 mM EDTA and stored at -20° C.
(§1) Cleavage assays for the recombinant topoisomerases I and calf thymus topoisomerases I and II were done as described (Liu et al., J. Biol. Chem. 258:15365-15370 (1983)). The plasmid YEpG DNA used for the cleavage assays was prepared and labeled at its 3'-end using the published procedures.

SMILES	Topo I-mediated DNA cleavage (REC, Relative Effective Concentration)
COc1cc(C2c3cc4c(cc3C(OC3OC5COC(c6cccs6)OC5C(O)C3O)C3COC(=O)C23)OCO4)cc(OC)c1O (stereo not shown) [VM-26, reference compound]	> 1000

same assay, conditions: concentration relative to camptothecin (CPT = 1) producing the same cleavage on plasmid DNA in the presence of human topoisomerase I

Topo I-mediated DNA cleavage (REC, Relative Effective Concentration)	SMILES
100	COc1cc2c(cc1OC)-c1cc3cc(OC)c(OC)cc3nc1CC2 [Compound 13a, 2,3,9,10-Tetramethoxy-5,6-dihydrobenz[a]acridine]
100	COc1cc2c(cc1OC)-c1cc3cc4c(cc3nc1CC2)OCO4 [Compound 13b, 2,3,-Dimethoxy-9,10-methylenedioxy-5,6-dihydrobenz[a]acridine]

Further lines, the compound ahead of its results:

SMILES	Topo I-mediated DNA cleavage (REC, Relative Effective Concentration)
CC[C@@]1(O)C(=O)OCc2c1cc1n(c2=O)Cc2cc3ccccc3nc2-1 [CPT, Camptothecin, reference compound]	1
COc1cc2c(cc1OC)-c1nc3cc(OC)c(OC)cc3c(C)c1CC2 [Compound 6, 2,3,9,10-Tetramethoxy-7-methyl-5,6-dihydrobenz[c]acridine]	> 1000
COc1cc2ccc3c(C)c4cc(OC)c(OC)cc4nc3c2cc1OC [Compound 7, 2,3,9,10-Tetramethoxy-7-methylbenz[c]acridine]	> 1000
COc1cc2c(cc1OC)-c1c(c(C)c3cc(OC)c(OC)cc3[n+]1C)CC2 [Compound 8, 2,3,9,10-Tetramethoxy-7,1 2-dimethyl-5,6-dihydrobenz[c]acridinium methosulfate]	> 1000
COc1cc2ccc3c(C)c4cc(OC)c(OC)cc4[n+](C)c3c2cc1OC [Compound 9, 2,3,9,10-Tetramethoxy-7,1 2-dimethylbenz [c]acridinium methosulfate]	> 1000

target: T2, calf thymus topoisomerase II (Bos taurus, UniProt F1MDU7); experiment: Topo II-mediated DNA cleavage assay; format: biochemical; details: concentration relative to VM26 (= 1) producing the same cleavage on plasmid DNA in the presence of calf thymus topoisomerase II
T2 construct: from tissue; host or cells: calf thymus glands
T2 sequence (F1MDU7 1-1532): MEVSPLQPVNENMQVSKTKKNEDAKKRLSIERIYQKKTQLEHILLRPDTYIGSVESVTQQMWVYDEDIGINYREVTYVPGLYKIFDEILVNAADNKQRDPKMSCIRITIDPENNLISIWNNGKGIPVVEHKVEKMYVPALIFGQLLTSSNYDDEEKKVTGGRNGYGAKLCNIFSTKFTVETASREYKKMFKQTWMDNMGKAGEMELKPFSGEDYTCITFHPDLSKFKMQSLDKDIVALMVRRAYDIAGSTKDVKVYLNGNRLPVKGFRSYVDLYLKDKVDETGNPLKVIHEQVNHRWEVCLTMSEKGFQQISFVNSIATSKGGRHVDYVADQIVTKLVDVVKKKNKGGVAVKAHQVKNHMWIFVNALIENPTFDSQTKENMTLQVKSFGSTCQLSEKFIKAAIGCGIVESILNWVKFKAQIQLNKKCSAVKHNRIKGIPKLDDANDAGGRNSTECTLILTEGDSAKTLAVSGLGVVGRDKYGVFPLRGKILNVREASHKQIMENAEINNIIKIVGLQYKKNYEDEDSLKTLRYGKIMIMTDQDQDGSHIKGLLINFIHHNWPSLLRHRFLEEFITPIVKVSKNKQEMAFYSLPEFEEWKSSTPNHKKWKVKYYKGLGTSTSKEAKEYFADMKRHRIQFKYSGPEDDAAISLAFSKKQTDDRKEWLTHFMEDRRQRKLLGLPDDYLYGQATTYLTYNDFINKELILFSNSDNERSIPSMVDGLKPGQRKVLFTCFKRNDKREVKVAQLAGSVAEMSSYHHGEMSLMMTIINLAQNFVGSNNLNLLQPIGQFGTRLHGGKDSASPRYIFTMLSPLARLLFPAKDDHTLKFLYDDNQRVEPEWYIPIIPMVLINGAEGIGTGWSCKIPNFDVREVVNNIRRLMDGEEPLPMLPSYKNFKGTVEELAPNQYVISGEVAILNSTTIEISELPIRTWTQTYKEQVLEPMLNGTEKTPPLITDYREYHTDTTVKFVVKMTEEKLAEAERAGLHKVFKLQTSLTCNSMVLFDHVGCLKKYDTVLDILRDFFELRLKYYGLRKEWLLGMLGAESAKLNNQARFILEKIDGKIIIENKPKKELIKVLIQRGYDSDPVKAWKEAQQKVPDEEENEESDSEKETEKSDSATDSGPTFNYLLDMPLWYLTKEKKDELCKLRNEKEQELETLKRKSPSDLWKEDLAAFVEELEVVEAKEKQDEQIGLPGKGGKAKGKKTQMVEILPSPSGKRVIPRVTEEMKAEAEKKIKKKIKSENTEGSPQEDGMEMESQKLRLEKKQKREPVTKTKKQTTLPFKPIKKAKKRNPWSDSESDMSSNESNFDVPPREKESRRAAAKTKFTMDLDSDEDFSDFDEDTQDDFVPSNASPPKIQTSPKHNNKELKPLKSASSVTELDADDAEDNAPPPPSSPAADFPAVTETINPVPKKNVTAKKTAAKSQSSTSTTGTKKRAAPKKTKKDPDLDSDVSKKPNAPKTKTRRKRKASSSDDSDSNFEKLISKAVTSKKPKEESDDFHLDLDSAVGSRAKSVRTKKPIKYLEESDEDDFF
Source text: The plasmid pET11a and the E. coli strain BL21(DE3) used for enzyme expression were purchased from Novagen. IPTG was purchased from Sigma. The ECL system used for the Western blotting analysis of bacterial lysates was from Amersham (UK). All the restriction enzymes and Vent polymerase were from New England Biolabs. Mammalian topoisomerase II was isolated from calf thymus glands according to the published procedure (Halligan et al., J. Biol. Chem. 260:2475-2482 (1985)). The single copy yeast plasmids YCpGAL1 expressing various topoisomerase I genes in JN2-134 yeast strain were a kind gift of Dr. M-A. Bjornsti (Thomas Jefferson University, Philadelphia, Pa.). All bacterial and yeast media were from Difco (Detroit, Mich.), while cell culture media were purchased from Gibco-BRL (Gaithersburg, Md.).
as §1

Topo II-mediated DNA cleavage (REC, Relative Effective Concentration)	SMILES
> 1000	COc1cc2c(cc1OC)-c1cc3cc(OC)c(OC)cc3nc1CC2 [Compound 13a, 2,3,9,10-Tetramethoxy-5,6-dihydrobenz[a]acridine]
> 1000	COc1cc2c(cc1OC)-c1cc3cc4c(cc3nc1CC2)OCO4 [Compound 13b, 2,3,-Dimethoxy-9,10-methylenedioxy-5,6-dihydrobenz[a]acridine]

Further lines, the compound ahead of its results:

SMILES	Topo II-mediated DNA cleavage (REC, Relative Effective Concentration)
CC[C@@]1(O)C(=O)OCc2c1cc1n(c2=O)Cc2cc3ccccc3nc2-1 [CPT, Camptothecin, reference compound]	> 1000
COc1cc2c(cc1OC)-c1nc3cc(OC)c(OC)cc3c(C)c1CC2 [Compound 6, 2,3,9,10-Tetramethoxy-7-methyl-5,6-dihydrobenz[c]acridine]	> 1000
COc1cc2ccc3c(C)c4cc(OC)c(OC)cc4nc3c2cc1OC [Compound 7, 2,3,9,10-Tetramethoxy-7-methylbenz[c]acridine]	> 1000
COc1cc2c(cc1OC)-c1c(c(C)c3cc(OC)c(OC)cc3[n+]1C)CC2 [Compound 8, 2,3,9,10-Tetramethoxy-7,1 2-dimethyl-5,6-dihydrobenz[c]acridinium methosulfate]	> 1000
COc1cc2ccc3c(C)c4cc(OC)c(OC)cc4[n+](C)c3c2cc1OC [Compound 9, 2,3,9,10-Tetramethoxy-7,1 2-dimethylbenz [c]acridinium methosulfate]	> 1000

test system: Human lymphoblast RPMI 8402 cells; experiment: MTT-microtiter plate tetrazolinium cytotoxicity assay (MTA), RPMI 8402; format: cell-based; details: Homo sapiens, RPMI 8402, 96 h, read-out: Cytotoxicity IC50, RPMI
Procedure: (§2) The IC50 of the drugs tested were determined by the MTT-microtiter plate tetrazolinium cytotoxicity assay (MTA) (Mosmann, T., J. Immunol. Methods 65:55-63 (1983); Denizot et al., J. Immunol. Methods 89:271-277 (1986)). Human lymphoblast RPMI 8402 cells and their camptothecin-resistant CPT-K5 cells (Andoh et al., Proc. Natl. Acad. Sci., USA 84:5565-5569 (1987)) were kindly provided by Dr. Toshiwo Andoh (Aichi Cancer Center Research Institute, Nagoya, Japan). The cell lines A2780 and its camptothecin-resistant derivative CPT-2000 were a generous gift of Dr. Jaulang Hwang (Institute of Molecular Biology, Academia sinica, Taiwan). Cells (2000 cells/well, seeded in […] growth medium) were grown in suspension at 37° C. in 5% CO2 and maintained by regular passage in RPMI medium supplemented with 10% heat inactivated fetal bovine serum, L-glutamine (2 mM), penicillin (100 U/mi), and streptomycin (0.1 mg/ml). The cells were exposed continuously for 4 days to drug concentrations ranging from 100 ug/ml to 1.0 ng/ml in ten fold dilutions, and assayed at the end of the fourth day. Each concentration and the no drug control were repeated at least twice in 6 replica wells. The results were plotted and the IC50 then measured. The drug sensitive human epidermoid carcinoma KB 3-1 cell line and its vinblastine-selected multidrug-resistant variant KB-V1 cells (Akiyama et al., Genetics 11:117-126 (1985)) were kindly provided by Dr. Michael Gottesmann (National Cancer Institute). They were grown as monolayer cultures at 37° C. in 5% CO2 and maintained by regular passage in Dulbecco's minimal essential medium supplemented with 10% heat inactivated fetal bovine serum. KB-V1 cells were maintained in the presence of […] vinblastine.

SMILES	IC50
CC[C@@]1(O)C(=O)OCc2c1cc1n(c2=O)Cc2cc3ccccc3nc2-1 [CPT, Camptothecin, reference compound]	0.004 µM
COc1cc2c(cc1OC)-c1nc3cc(OC)c(OC)cc3c(C)c1CC2 [Compound 6, 2,3,9,10-Tetramethoxy-7-methyl-5,6-dihydrobenz[c]acridine]	> 137 µM
COc1cc2ccc3c(C)c4cc(OC)c(OC)cc4nc3c2cc1OC [Compound 7, 2,3,9,10-Tetramethoxy-7-methylbenz[c]acridine]	7 µM
COc1cc2c(cc1OC)-c1c(c(C)c3cc(OC)c(OC)cc3[n+]1C)CC2 [Compound 8, 2,3,9,10-Tetramethoxy-7,1 2-dimethyl-5,6-dihydrobenz[c]acridinium methosulfate]	6.1 µM
COc1cc2ccc3c(C)c4cc(OC)c(OC)cc4[n+](C)c3c2cc1OC [Compound 9, 2,3,9,10-Tetramethoxy-7,1 2-dimethylbenz [c]acridinium methosulfate]	1.2 µM
COc1cc2c(cc1OC)-c1cc3cc(OC)c(OC)cc3nc1CC2 [Compound 13a, 2,3,9,10-Tetramethoxy-5,6-dihydrobenz[a]acridine]	7.1 µM
COc1cc2c(cc1OC)-c1cc3cc4c(cc3nc1CC2)OCO4 [Compound 13b, 2,3,-Dimethoxy-9,10-methylenedioxy-5,6-dihydrobenz[a]acridine]	9 µM
COc1cc(C2c3cc4c(cc3C(OC3OC5COC(c6cccs6)OC5C(O)C3O)C3COC(=O)C23)OCO4)cc(OC)c1O (stereo not shown) [VM-26, reference compound]	0.3 µM

test system: camptothecin-resistant CPT-K5 cells; experiment: MTT-microtiter plate tetrazolinium cytotoxicity assay (MTA), CPT-K5; format: cell-based, human; details: Homo sapiens, CPT-K5, 96 h, read-out: Cytotoxicity IC50, CPT-K5
Procedure: as §2

SMILES	IC50
CC[C@@]1(O)C(=O)OCc2c1cc1n(c2=O)Cc2cc3ccccc3nc2-1 [CPT, Camptothecin, reference compound]	> 10 µM
COc1cc2c(cc1OC)-c1nc3cc(OC)c(OC)cc3c(C)c1CC2 [Compound 6, 2,3,9,10-Tetramethoxy-7-methyl-5,6-dihydrobenz[c]acridine]	> 137 µM
COc1cc2ccc3c(C)c4cc(OC)c(OC)cc4nc3c2cc1OC [Compound 7, 2,3,9,10-Tetramethoxy-7-methylbenz[c]acridine]	5.5 µM
COc1cc2c(cc1OC)-c1c(c(C)c3cc(OC)c(OC)cc3[n+]1C)CC2 [Compound 8, 2,3,9,10-Tetramethoxy-7,1 2-dimethyl-5,6-dihydrobenz[c]acridinium methosulfate]	12.2 µM
COc1cc2ccc3c(C)c4cc(OC)c(OC)cc4[n+](C)c3c2cc1OC [Compound 9, 2,3,9,10-Tetramethoxy-7,1 2-dimethylbenz [c]acridinium methosulfate]	1.2 µM
COc1cc2c(cc1OC)-c1cc3cc(OC)c(OC)cc3nc1CC2 [Compound 13a, 2,3,9,10-Tetramethoxy-5,6-dihydrobenz[a]acridine]	7.1 µM
COc1cc2c(cc1OC)-c1cc3cc4c(cc3nc1CC2)OCO4 [Compound 13b, 2,3,-Dimethoxy-9,10-methylenedioxy-5,6-dihydrobenz[a]acridine]	14.9 µM
COc1cc(C2c3cc4c(cc3C(OC3OC5COC(c6cccs6)OC5C(O)C3O)C3COC(=O)C23)OCO4)cc(OC)c1O (stereo not shown) [VM-26, reference compound]	0.5 µM
